Measurements reported in ChEMBL document CHEMBL1201862, “PubChem BioAssay data set” (2004).
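Briefly, cells in 96-well plates were exposed to five compound concentrations for 48 h, and endpoints were estimated by linear interpolation. GI50 is the concentration that inhibits growth by half.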 The source made the active and inactive calls. Cut-off read from the data, not from the text of the source: active = GI50 up to about 1.1 µM and inactive = higher.

Tests used:
Assay in all cases: NCI tumour cell line growth inhibition, 48 h
HOP-92 = test system: HOP-92
SK-MEL-5 = test system: SK-MEL-5
BT-549 = test system: BT-549
SNB-75 = test system: SNB-75
SK-MEL-2 = test system: SK-MEL-2
NCI-H226 = test system: NCI-H226
NCI-H522 = test system: NCI-H522
NCI-H460 = test system: NCI-H460
CAKI-1 = test system: CAKI-1
Hs-578T = test system: Hs-578T
T47D = test system: T47D
TK-10 = test system: TK-10
OVCAR-3 = test system: OVCAR-3
IGROV-1 = test system: IGROV-1
PC-3 = test system: PC-3
SN12C = test system: SN12C
MCF7 = test system: MCF7
HL-60 = test system: HL-60
SF-295 = test system: SF-295
SR = test system: SR

Compound | GI50 (HOP-92) | GI50 (SK-MEL-5) | GI50 (BT-549) | GI50 (SNB-75) | GI50 (SK-MEL-2) | GI50 (NCI-H226) | GI50 (NCI-H522) | GI50 (NCI-H460) | GI50 (CAKI-1) | GI50 (Hs-578T) | GI50 (T47D) | GI50 (TK-10) | GI50 (OVCAR-3) | GI50 (IGROV-1) | GI50 (PC-3) | GI50 (SN12C) | GI50 (MCF7) | GI50 (HL-60) | GI50 (SF-295) | GI50 (SR)
O=c1oc2ccccc2c(O)c1C1c2c(c3ccccc3oc2=O)Oc2c1c(=O)oc1ccccc21 | 35.2 µM (inactive) | 21 µM (inactive) | 27.5 µM (inactive) | 57.1 µM (inactive) | 51.6 µM (inactive) | 22.4 µM (inactive) | 39 µM (inactive) | 17.1 µM (inactive) | 30.3 µM (inactive) | 46.8 µM (inactive) | 38.4 µM (inactive) | 51.9 µM (inactive) | 61.8 µM (inactive) | 35 µM (inactive) | 50.6 µM (inactive) | 30.1 µM (inactive) |  |  |  | 
COc1cc2c(cc1OC)-c1cc3ccccc3c(=O)n1CCC2 | 15.4 µM (inactive) | 11.4 µM (inactive) | 13.1 µM (inactive) | 19.1 µM (inactive) | 29.3 µM (inactive) | 12.6 µM (inactive) | 9.25 µM (inactive) | 1.76 µM (inactive) | 7.85 µM (inactive) | 14.8 µM (inactive) | 17.9 µM (inactive) | 16.3 µM (inactive) | 15.9 µM (inactive) | 7.48 µM (inactive) | 8.51 µM (inactive) | 13.1 µM (inactive) | 7.71 µM (inactive) | 2.58 µM (inactive) | 11.1 µM (inactive) | 
CSCCCNC(=O)[C@H](CSC)NC(=O)c1csc(CCNC(=O)[C@@H](NSc2ccccc2[N+](=O)[O-])C(C)O)n1 (stereo not given in full) | > 100 µM (inactive) | > 100 µM (inactive) | > 100 µM (inactive) | 28.2 µM (inactive) | > 100 µM (inactive) | > 100 µM (inactive) | > 100 µM (inactive) | > 100 µM (inactive) | > 100 µM (inactive) | > 100 µM (inactive) |  | > 100 µM (inactive) | > 100 µM (inactive) | > 100 µM (inactive) | > 100 µM (inactive) | > 100 µM (inactive) | > 100 µM (inactive) | > 100 µM (inactive) | > 100 µM (inactive) | > 100 µM (inactive)
C=C1c2c(n(S(=O)(=O)c3ccccc3)c3ccccc23)[C@@]2(C(=O)OC)CC3C=CC2N1C3 | > 100 µM (inactive) |  | > 100 µM (inactive) | > 100 µM (inactive) | > 100 µM (inactive) | > 100 µM (inactive) | > 100 µM (inactive) | > 100 µM (inactive) | > 100 µM (inactive) |  | > 100 µM (inactive) | > 100 µM (inactive) | > 100 µM (inactive) | > 100 µM (inactive) | > 100 µM (inactive) | > 100 µM (inactive) | > 100 µM (inactive) | 8.09 µM (inactive) | > 100 µM (inactive) | 
Cc1cc(Cl)nc(Nc2nc3ccccc3[nH]2)n1 | 21.8 µM (inactive) | > 100 µM (inactive) | > 100 µM (inactive) | > 100 µM (inactive) | > 100 µM (inactive) | > 100 µM (inactive) | 2.96 µM (inactive) | > 100 µM (inactive) |  | 40.1 µM (inactive) |  | > 100 µM (inactive) | > 100 µM (inactive) | > 100 µM (inactive) | > 100 µM (inactive) | > 100 µM (inactive) | > 100 µM (inactive) | > 100 µM (inactive) | > 100 µM (inactive) | 32.1 µM (inactive)
COc1cc2ccnc3c2c(c1OC)N(C)C=C3 |  |  | 33 µM (inactive) | 33.6 µM (inactive) | 23.1 µM (inactive) | 21.2 µM (inactive) |  | 14.6 µM (inactive) | 21.3 µM (inactive) | 29.3 µM (inactive) | 32.3 µM (inactive) | 35.3 µM (inactive) | 29.4 µM (inactive) |  | 31.9 µM (inactive) | 30.4 µM (inactive) | 16.6 µM (inactive) |  | 20.2 µM (inactive) | 21.3 µM (inactive)
Oc1ccc2c(c1)-c1c(c3ccccc3n1CCN1CCOCC1)CC2 |  | 40.6 µM (inactive) | 43.7 µM (inactive) | 27 µM (inactive) | 25 µM (inactive) | 24.6 µM (inactive) |  | > 100 µM (inactive) | 32.6 µM (inactive) | 63.4 µM (inactive) | 84.7 µM (inactive) | 28.6 µM (inactive) | 33.5 µM (inactive) | 15.3 µM (inactive) | 32.2 µM (inactive) | > 100 µM (inactive) | 37.2 µM (inactive) | > 100 µM (inactive) | 48.3 µM (inactive) | > 100 µM (inactive)
CC1=NNC(=O)C1C1CC(c2c[nH]c3ccccc23)=NNC1=O (stereo not given) | > 100 µM (inactive) | > 100 µM (inactive) | > 100 µM (inactive) | 28.4 µM (inactive) | > 100 µM (inactive) | > 100 µM (inactive) | > 100 µM (inactive) | > 100 µM (inactive) | > 100 µM (inactive) | > 100 µM (inactive) | > 100 µM (inactive) | > 100 µM (inactive) | > 100 µM (inactive) | 0.773 µM (active) | > 100 µM (inactive) | > 100 µM (inactive) |  | > 100 µM (inactive) | > 100 µM (inactive) | 
